In ChEMBL document CHEMBL1201862, “PubChem BioAssay data set” (2004):
The source made the active and inactive calls.

Tests used:
Format in all cases: functional
[1] = target: T1, Orexin/Hypocretin receptor type 1 (Homo sapiens, UniProt O43613); experiment: (§1) Fluorescence-based cell-based high throughput dose response assay for antagonists of the orexin 1 receptor (OX1R; HCRTR1). [Related pubchem assays (depositor defined):AID434989, AID435008, AID463079, AID485270, AID492963, AID492964, AID492965, AID493232, AID504717, AID504718]
T1 sequence (O43613 whole entry): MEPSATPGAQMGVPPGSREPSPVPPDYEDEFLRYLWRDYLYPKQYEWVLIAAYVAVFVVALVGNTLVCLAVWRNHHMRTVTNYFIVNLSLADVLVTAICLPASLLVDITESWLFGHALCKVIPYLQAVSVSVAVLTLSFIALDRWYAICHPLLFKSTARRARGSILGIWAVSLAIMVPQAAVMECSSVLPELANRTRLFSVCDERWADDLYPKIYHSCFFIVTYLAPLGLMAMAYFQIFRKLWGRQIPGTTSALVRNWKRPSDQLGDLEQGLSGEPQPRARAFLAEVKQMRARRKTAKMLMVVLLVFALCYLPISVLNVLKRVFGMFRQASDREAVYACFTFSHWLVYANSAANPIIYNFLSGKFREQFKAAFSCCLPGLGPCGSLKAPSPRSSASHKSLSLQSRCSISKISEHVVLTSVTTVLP

[2] = target: T1, Orexin/Hypocretin receptor type 1; experiment: as §1, with “Homogeneous Time Resolved Fluorescence (HTRF)-based” for “Fluorescence-based”
CHO-K1 = experiment: (§2) Counterscreen for antagonists of the orexin 1 receptor (OX1R; HCRTR1): Homogeneous time resolved fluorescence (HTRF)-based cell-based dose response assay to identify antagonists of the parental CHO-K1 cell line. [Related pubchem assays (depositor defined):AID434989, AID435008, AID463079, AID485270, AID492963, AID492964, AID492965, AID493232, AID504699, AID504701]; settings: Cricetulus griseus
[3] = as §2, with “Fluorescence-based” for “Homogeneous time resolved fluorescence (HTRF)-based”, “cell-based high throughput” for “cell-based”, “CHO” for “CHO-K1”
Orexin receptor type 2 [4] = target: T2, Orexin receptor type 2 (Homo sapiens, UniProt O43614); experiment: Counterscreen assay for antagonists of the orexin 1 receptor (OX1R; HCRTR1): Fluorescence-based cell-based dose response assay for antagonists of the orexin 2 receptor (OX2R; HCRTR2), run by assay provider.
T2 sequence (O43614 whole entry): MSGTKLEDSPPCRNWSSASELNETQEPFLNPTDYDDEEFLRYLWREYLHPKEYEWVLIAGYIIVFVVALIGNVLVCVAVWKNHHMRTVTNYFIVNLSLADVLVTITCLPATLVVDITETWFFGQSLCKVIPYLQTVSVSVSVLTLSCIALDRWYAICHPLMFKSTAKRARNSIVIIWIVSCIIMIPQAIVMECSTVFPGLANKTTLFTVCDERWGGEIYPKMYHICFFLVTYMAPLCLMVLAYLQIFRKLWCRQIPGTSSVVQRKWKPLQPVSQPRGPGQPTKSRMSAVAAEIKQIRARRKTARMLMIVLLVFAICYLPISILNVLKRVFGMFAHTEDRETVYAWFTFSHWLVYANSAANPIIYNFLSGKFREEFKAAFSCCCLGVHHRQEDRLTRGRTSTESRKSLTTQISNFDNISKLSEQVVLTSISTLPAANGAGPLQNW

Orexin receptor type 2 [5] = target: T2, Orexin receptor type 2; experiment: Counterscreen assay for antagonists of the orexin 1 receptor (OX1R; HCRTR1): Homogeneous Time Resolved Fluorescence (HTRF)-based cell-based dose response assay for antagonists of the orexin 2 receptor (OX2R; HCRTR2), run by assay provider.
fMet-Leu-Phe receptor = target: T3, fMet-Leu-Phe receptor (Homo sapiens, UniProt P21462); experiment: FPR ligands, dose response (AID 519)
T3 sequence (P21462 whole entry): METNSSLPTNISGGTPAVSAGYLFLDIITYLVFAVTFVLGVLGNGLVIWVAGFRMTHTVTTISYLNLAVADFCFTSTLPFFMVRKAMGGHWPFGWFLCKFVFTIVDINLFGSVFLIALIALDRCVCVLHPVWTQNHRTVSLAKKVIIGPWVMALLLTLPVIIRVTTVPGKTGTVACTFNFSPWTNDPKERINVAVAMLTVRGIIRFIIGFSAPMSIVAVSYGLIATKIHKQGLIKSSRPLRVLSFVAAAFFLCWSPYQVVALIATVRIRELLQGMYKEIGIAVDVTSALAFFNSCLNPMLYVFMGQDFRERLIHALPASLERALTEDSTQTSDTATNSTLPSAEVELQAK

Fatty acid synthase [6] = target: T4, Fatty acid synthase (Homo sapiens, UniProt P49327); experiment: FAS thioesterase domain inhibitors, dose response, biochemical, endpoint fluorescence intensity, uHTS hits (AID 624327);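 also: fluorescence from hydrolysis of an O-methyl fluorescein acyl ester substrate by the enzyme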
Fatty acid synthase [7] = target: T4, Fatty acid synthase; experiment: FAS thioesterase domain inhibitors, dose response, biochemical, kinetic fluorescence intensity (AID 624326);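 also: rate of fluorescence rise from hydrolysis of a fluorogenic O-methyl fluorescein ester substrate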

T4 sequence (P49327 whole entry, the tested form may be a part): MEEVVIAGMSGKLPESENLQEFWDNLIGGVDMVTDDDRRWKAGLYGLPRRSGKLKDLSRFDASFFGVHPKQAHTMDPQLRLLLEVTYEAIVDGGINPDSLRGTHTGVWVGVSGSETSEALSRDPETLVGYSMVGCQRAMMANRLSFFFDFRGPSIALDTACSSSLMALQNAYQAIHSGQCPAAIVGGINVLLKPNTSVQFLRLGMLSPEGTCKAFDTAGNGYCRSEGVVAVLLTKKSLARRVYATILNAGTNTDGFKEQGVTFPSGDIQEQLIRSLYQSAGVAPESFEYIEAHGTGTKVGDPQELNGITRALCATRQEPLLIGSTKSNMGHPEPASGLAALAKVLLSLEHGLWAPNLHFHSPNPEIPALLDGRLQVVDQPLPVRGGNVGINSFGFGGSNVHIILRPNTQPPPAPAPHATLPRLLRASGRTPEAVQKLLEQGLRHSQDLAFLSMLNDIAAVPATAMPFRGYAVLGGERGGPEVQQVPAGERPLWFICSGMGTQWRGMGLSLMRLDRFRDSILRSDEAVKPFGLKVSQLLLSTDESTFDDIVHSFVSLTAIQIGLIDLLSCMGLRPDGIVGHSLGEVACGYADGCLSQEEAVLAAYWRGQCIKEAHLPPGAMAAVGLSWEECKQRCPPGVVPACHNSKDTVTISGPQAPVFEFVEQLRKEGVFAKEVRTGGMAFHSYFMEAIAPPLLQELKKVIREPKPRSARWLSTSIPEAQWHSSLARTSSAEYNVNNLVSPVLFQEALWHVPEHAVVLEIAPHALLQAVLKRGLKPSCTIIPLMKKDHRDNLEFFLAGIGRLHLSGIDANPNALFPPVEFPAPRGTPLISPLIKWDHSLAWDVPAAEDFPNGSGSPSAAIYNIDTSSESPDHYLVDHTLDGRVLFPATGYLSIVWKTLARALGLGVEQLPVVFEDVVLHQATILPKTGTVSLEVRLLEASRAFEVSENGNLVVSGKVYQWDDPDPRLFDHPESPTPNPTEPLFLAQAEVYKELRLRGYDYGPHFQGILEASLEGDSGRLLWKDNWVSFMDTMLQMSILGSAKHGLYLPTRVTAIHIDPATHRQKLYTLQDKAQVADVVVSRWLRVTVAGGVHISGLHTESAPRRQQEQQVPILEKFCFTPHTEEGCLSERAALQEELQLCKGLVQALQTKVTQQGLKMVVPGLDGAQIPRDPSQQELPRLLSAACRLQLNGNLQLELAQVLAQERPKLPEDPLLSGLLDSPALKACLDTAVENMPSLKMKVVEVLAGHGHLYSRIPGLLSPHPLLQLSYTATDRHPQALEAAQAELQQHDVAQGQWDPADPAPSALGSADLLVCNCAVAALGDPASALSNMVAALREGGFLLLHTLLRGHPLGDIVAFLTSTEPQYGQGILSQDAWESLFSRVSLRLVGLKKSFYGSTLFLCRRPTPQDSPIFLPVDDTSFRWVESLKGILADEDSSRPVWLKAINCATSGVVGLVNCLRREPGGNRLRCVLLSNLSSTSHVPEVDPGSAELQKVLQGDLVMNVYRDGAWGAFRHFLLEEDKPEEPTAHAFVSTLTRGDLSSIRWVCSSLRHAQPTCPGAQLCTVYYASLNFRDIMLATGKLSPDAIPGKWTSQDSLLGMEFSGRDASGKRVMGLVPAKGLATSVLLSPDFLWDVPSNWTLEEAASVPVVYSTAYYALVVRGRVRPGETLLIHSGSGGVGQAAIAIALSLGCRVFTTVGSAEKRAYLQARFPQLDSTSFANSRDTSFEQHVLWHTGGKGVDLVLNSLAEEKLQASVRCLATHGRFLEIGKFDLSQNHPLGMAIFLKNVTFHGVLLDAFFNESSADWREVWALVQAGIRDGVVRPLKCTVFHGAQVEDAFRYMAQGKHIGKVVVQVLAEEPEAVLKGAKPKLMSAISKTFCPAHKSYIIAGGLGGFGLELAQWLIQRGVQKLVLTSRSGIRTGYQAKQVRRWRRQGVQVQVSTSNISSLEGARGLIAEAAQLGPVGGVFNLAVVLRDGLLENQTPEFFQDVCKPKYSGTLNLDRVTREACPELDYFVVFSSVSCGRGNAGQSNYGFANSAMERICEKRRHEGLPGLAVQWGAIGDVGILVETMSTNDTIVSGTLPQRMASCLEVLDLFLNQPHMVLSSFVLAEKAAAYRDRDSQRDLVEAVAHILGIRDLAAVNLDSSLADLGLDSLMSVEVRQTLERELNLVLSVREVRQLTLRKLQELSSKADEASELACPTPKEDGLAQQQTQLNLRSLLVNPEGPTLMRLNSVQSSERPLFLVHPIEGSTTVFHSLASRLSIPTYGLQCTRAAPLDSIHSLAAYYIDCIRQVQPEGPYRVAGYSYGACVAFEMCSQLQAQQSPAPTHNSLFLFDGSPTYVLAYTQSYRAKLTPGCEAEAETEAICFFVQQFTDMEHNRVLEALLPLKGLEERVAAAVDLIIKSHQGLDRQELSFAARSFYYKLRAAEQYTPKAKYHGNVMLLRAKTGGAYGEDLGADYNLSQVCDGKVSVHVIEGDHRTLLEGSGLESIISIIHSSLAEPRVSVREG

Row | Structure (SMILES) | IC50 [1] | IC50 [2] | IC50 (CHO-K1) | IC50 [3] | IC50 (Orexin receptor type 2 [4]) | IC50 (Orexin receptor type 2 [5]) | Ki (fMet-Leu-Phe receptor) | IC50 (Fatty acid synthase [6]) | IC50 (Fatty acid synthase [7])
1 | Cc1csc(-c2coc3cc(O)cc(C)c3c2=O)n1 | 10.4 µM (inactive) | 2.54 µM (active) | > 66.2 µM (inactive) | > 49.8 µM (inactive) | > 88.8 µM (inactive) | > 50 µM (inactive) | – | – | –
2 | O=c1cc(CN2CC(O)Cc3ccc4ccccc4c32)nc2sccn12 (stereo not drawn) | 3.29 µM (active) | 4.12 µM (active) | > 66.2 µM (inactive) | > 49.7 µM (inactive) | > 88.8 µM (inactive) | > 50 µM (inactive) | – | – | –
3 | Cc1ccc(C(=O)C2=C(O)C(=O)N(c3cc(C)on3)C2c2cccc(Br)c2)cc1 (stereo not drawn) | – | – | – | – | – | – | > 66.7 µM (inactive) | – | –
4 | CCCCNC(=O)CCC(=O)NNc1nc2ccccc2c2nc(-c3ccccc3)nn12 | 7.27 µM (active) | 2.69 µM (active) | > 66.2 µM (inactive) | > 49.8 µM (inactive) | > 88.8 µM (inactive) | > 50 µM (inactive) | – | – | –
5 | CN(Cc1cccs1)C(=O)Cn1cnc2cc([N+](=O)[O-])ccc2c1=O | – | – | – | – | – | – | – | 7.81 µM (active) | 5.16 µM (active)
6 | Cc1cc(O)cc2c(=O)c3ccccc3sc12 | 8.54 µM (active) | 3.64 µM (active) | > 66.3 µM (inactive) | > 49.8 µM (inactive) | > 88.8 µM (inactive) | 0.009 µM (active) | – | – | –
7 | CN(Cc1ccccc1)C(=O)c1[nH]cnc1C(=O)N[C@@H](Cc1ccccc1)C(=O)OC(C)(C)C | 5.87 µM (active) | 0.515 µM (active) | > 66.2 µM (inactive) | > 49.8 µM (inactive) | > 88.8 µM (inactive) | > 50 µM (inactive) | – | – | –
